Reference: US20240246942A1, “KINASE INHIBITORS FOR THE TREATMENT OF NEURODEGENERATIVE DISEASES” (priority 2020, published 2024)

Tests used:
Assay in all cases: biochemical
[1] = biological target: T1, panel of 374 wild-type kinases (Homo sapiens, UniProt Q13470); settings: read-out: % Enzyme Activity (relative to DMSO controls), kinase TNK1
T1 construct: purchased Reaction Biology Corporation
T1 sequence (Q13470 1-666): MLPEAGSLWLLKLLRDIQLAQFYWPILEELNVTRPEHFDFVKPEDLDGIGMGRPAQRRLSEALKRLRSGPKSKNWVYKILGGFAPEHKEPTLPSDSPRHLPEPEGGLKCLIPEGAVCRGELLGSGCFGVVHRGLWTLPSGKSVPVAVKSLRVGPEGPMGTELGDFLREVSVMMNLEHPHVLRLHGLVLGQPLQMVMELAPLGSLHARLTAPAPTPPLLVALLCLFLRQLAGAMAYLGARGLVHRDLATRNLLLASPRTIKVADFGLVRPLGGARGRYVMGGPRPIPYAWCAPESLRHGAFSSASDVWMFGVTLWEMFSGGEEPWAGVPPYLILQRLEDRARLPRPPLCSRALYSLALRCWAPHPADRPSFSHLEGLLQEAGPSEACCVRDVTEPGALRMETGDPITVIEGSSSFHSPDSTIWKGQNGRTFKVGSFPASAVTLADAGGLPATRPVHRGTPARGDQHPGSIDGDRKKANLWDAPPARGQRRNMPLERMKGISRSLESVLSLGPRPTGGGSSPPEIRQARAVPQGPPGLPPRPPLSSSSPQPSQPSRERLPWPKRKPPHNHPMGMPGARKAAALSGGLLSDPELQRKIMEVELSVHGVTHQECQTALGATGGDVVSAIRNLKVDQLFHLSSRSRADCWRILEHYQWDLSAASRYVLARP

[2] = biological target: T2, panel of 374 wild-type kinases (Homo sapiens, UniProt P36897); settings: read-out: % Enzyme Activity (relative to DMSO controls), ALK5/TGFBR1
T2 construct: purchased Reaction Biology Corporation
T2 sequence (P36897 34-503): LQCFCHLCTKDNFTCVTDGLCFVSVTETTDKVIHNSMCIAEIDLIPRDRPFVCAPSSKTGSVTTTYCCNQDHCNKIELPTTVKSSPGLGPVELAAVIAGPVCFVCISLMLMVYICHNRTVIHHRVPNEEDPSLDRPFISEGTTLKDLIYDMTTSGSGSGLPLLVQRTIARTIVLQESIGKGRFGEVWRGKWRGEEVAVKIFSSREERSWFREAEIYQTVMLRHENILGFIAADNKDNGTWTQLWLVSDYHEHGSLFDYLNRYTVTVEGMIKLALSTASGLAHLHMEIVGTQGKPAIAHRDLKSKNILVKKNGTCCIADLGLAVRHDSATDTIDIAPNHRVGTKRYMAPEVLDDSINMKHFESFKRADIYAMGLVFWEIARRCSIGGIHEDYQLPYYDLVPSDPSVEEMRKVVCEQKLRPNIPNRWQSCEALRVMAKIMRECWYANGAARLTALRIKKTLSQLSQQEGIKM

[3] = biological target: T3, panel of 374 wild-type kinases (Homo sapiens, UniProt Q86Z02); settings: read-out: % Enzyme Activity (relative to DMSO controls), HIPK1
T3 construct: purchased Reaction Biology Corporation

[4] = biological target: T4, panel of 374 wild-type kinases (Homo sapiens, UniProt O00311); settings: read-out: % Enzyme Activity (relative to DMSO controls), CDC7/DBF4
T4 construct: purchased Reaction Biology Corporation

[5] = biological target: T5, panel of 374 wild-type kinases (Homo sapiens, UniProt P36896); settings: read-out: % Enzyme Activity (relative to DMSO controls), ALK4/ACVR1B
T5 construct: purchased Reaction Biology Corporation
T5 sequence (P36896 24-505): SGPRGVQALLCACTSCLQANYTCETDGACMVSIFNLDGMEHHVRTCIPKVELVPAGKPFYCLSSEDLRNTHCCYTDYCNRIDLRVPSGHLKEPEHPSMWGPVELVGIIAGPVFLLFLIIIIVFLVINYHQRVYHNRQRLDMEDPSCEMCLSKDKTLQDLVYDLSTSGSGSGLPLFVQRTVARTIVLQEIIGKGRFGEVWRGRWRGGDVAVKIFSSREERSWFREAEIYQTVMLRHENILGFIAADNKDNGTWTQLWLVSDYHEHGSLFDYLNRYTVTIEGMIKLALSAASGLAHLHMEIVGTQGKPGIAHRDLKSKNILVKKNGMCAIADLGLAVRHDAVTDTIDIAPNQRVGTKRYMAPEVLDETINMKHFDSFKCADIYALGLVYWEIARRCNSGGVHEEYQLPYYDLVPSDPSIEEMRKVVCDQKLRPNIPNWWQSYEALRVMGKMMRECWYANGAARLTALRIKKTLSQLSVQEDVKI

[6] = biological target: T6, panel of 374 wild-type kinases (Homo sapiens, UniProt Q08881); settings: read-out: % Enzyme Activity (relative to DMSO controls), ITK
T6 construct: purchased Reaction Biology Corporation
T6 sequence (Q08881 1-620): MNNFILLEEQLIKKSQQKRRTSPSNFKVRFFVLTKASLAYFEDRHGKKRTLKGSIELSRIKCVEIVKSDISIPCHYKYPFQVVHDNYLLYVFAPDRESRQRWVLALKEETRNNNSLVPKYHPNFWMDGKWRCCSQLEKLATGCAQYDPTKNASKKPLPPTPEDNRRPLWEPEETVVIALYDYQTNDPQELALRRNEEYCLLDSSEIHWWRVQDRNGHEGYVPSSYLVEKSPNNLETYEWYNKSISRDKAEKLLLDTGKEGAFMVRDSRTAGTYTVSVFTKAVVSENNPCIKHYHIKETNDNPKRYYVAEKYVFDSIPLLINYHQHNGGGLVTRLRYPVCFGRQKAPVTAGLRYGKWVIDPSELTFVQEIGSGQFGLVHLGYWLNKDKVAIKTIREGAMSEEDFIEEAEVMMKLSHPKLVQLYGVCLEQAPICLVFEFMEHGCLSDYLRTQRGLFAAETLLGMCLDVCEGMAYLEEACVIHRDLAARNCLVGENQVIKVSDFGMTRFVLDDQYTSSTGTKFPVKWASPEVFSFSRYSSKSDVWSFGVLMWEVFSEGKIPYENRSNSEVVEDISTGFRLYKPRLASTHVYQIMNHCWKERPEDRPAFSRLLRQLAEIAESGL

[7] = biological target: T7, panel of 374 wild-type kinases (Homo sapiens, UniProt P29317); settings: read-out: % Enzyme Activity (relative to DMSO controls), EPHA2
T7 construct: purchased Reaction Biology Corporation

[8] = biological target: T8, panel of 374 wild-type kinases (Homo sapiens, UniProt P04049); settings: read-out: % Enzyme Activity (relative to DMSO controls), kinase RAF1
T8 construct: purchased Reaction Biology Corporation

[9] = biological target: T9, panel of 374 wild-type kinases (Homo sapiens, UniProt P29597); settings: read-out: % Enzyme Activity (relative to DMSO controls), kinase TYK2
T9 construct: purchased Reaction Biology Corporation
T9 sequence (P29597 whole entry): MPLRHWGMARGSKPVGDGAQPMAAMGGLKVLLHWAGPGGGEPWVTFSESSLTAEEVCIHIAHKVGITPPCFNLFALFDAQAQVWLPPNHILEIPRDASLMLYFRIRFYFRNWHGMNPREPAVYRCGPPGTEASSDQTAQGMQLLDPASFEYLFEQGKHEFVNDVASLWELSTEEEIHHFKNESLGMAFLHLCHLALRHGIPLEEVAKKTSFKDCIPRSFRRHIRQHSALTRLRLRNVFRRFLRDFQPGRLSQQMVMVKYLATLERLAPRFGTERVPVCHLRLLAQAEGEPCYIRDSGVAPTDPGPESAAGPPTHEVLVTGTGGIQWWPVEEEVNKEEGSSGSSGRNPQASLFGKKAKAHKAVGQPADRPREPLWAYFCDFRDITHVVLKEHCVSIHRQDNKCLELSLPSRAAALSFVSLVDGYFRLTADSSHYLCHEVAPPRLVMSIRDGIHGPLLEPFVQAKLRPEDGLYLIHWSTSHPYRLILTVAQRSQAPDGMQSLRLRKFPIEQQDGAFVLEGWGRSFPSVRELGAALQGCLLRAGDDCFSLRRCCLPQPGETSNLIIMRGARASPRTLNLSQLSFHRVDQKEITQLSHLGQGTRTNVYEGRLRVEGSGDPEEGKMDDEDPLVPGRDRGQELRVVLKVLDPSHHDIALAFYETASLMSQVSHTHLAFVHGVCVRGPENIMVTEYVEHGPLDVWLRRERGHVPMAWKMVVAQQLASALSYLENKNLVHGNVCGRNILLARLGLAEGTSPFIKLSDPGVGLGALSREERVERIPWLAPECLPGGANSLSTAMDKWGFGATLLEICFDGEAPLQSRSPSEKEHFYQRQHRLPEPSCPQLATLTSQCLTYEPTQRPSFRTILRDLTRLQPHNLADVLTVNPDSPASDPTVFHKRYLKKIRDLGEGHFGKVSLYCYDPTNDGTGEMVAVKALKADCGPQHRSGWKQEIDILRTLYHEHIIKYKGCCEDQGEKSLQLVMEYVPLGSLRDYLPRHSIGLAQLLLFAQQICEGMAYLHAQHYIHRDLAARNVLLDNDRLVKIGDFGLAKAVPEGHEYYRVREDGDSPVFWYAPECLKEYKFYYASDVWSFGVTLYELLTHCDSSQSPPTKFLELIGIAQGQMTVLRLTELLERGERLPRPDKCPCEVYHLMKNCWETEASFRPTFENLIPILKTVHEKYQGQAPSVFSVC

T4 sequence (O00311 whole entry): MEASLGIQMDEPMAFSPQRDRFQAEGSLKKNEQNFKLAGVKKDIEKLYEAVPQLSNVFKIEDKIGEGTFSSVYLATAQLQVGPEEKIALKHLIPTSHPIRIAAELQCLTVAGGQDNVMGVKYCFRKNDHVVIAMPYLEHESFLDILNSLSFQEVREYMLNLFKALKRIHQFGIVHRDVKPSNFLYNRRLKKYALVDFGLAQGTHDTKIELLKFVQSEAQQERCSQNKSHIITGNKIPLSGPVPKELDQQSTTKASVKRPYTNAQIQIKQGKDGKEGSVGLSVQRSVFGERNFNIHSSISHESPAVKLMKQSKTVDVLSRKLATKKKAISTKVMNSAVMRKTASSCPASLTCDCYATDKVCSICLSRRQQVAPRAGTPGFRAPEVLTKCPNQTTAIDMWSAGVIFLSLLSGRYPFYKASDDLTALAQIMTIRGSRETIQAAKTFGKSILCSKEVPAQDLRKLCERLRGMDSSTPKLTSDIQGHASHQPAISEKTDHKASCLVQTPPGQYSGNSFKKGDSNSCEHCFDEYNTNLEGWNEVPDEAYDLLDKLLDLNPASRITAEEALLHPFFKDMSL
T8 sequence (P04049 whole entry): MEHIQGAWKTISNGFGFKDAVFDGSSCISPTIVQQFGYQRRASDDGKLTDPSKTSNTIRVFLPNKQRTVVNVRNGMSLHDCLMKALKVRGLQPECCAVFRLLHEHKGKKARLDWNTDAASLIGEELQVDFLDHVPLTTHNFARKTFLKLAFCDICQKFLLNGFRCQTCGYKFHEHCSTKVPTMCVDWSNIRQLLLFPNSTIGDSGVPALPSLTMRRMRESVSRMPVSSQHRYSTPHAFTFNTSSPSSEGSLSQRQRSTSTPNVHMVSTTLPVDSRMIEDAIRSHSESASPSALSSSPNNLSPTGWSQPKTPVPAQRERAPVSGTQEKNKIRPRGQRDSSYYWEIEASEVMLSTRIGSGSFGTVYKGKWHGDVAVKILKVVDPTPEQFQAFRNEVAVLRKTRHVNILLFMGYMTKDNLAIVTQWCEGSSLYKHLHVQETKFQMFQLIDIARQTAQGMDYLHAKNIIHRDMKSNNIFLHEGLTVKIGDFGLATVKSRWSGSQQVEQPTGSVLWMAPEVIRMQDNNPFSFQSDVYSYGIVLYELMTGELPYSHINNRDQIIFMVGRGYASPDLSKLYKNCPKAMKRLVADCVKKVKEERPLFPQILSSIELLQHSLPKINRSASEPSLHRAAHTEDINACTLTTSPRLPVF
T7 sequence (P29317 24-976): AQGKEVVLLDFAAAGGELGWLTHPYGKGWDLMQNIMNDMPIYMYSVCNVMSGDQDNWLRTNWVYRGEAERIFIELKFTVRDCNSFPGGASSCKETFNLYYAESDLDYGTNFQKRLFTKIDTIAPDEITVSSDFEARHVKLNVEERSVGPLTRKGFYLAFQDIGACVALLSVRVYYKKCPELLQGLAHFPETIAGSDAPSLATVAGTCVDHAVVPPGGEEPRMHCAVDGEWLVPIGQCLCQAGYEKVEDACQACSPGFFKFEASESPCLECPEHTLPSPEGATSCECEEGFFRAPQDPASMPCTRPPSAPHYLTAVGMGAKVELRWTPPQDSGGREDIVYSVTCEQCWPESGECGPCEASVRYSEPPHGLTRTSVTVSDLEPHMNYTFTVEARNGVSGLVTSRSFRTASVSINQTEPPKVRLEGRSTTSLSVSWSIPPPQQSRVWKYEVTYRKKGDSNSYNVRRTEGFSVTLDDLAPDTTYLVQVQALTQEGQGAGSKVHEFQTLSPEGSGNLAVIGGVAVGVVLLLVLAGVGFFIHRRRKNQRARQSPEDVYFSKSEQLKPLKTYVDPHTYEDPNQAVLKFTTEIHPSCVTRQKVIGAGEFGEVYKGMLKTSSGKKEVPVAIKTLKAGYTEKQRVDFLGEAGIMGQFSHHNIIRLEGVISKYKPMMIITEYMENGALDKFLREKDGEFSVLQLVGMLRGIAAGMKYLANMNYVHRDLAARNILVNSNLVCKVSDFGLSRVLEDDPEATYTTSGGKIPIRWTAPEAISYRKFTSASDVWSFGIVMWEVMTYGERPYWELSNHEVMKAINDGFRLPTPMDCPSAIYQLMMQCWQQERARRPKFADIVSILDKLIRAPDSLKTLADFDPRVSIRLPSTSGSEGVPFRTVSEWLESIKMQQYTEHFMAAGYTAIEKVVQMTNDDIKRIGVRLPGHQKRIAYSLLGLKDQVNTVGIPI
T3 sequence (Q86Z02 whole entry): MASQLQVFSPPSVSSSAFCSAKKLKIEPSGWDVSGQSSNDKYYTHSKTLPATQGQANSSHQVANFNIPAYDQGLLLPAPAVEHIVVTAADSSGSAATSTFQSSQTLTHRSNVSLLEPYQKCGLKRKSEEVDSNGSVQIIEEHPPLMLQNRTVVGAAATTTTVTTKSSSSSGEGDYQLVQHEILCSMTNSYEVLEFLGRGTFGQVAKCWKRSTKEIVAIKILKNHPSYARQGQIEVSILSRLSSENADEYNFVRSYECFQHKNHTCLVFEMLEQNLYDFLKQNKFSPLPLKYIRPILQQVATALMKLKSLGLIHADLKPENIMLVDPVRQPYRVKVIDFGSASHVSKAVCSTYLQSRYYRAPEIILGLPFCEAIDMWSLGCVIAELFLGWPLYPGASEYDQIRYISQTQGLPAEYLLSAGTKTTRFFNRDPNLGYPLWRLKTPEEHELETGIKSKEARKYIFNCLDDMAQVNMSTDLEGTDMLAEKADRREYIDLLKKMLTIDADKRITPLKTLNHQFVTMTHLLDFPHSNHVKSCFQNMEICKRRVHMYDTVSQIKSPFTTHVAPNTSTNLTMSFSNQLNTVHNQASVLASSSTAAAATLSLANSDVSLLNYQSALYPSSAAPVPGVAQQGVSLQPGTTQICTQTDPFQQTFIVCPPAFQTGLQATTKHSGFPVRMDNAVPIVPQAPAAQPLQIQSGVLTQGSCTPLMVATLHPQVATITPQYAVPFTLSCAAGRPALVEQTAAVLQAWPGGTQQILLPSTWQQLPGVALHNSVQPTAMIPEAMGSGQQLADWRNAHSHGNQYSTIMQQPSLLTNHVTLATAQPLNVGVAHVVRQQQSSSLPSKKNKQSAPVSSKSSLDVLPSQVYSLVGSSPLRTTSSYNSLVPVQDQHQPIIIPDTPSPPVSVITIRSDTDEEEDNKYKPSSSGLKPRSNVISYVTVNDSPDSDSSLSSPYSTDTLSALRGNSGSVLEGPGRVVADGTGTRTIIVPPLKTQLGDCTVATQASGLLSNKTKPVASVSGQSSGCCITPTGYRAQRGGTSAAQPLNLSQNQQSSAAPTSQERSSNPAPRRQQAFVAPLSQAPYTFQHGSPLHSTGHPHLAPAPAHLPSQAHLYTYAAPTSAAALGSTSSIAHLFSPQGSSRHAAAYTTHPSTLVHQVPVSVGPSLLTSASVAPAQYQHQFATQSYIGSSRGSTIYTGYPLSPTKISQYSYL

| Structure (SMILES) | remaining activity at 5 µM [1] [%] | remaining activity at 5 µM [2] [%] | remaining activity at 5 µM [3] [%] | remaining activity at 5 µM [4] [%] | remaining activity at 5 µM [5] [%] | remaining activity at 5 µM [6] [%] | remaining activity at 5 µM [7] [%] | remaining activity at 5 µM [8] [%] | remaining activity at 5 µM [9] [%] | remaining activity at 10 µM ([1]; 10 uM) [%] | remaining activity at 10 µM ([2]; 10 uM) [%] | remaining activity at 10 µM ([3]; 10 uM) [%] | remaining activity at 10 µM ([4]; 10 uM) [%] | remaining activity at 10 µM ([5]; 10 uM) [%] | remaining activity at 10 µM ([6]; 10 uM) [%] | remaining activity at 10 µM ([7]; 10 uM) [%] | remaining activity at 10 µM ([8]; 10 uM) [%] | remaining activity at 10 µM ([9]; 10 uM) [%] |
| --- | --- | --- | --- | --- | --- | --- | --- | --- | --- | --- | --- | --- | --- | --- | --- | --- | --- | --- |
| O=C(Nc1cnn(-c2csc(C(=O)NC3COC3)c2)c1)Nc1ccccc1Cl [Compound 17, 4-(4-(3-(2-chlorophenyl)ureido)-1H-pyrazol-1-yl)-N-(oxetan-3-yl)thiophene-2-carboxamide] | 100 | 103 | 96.3 | 111 | 124 | 107 | 101 | 87 | 95.9 | – | – | – | – | – | – | – | – | – |
| O=C(Nc1cnn(-c2csc(C(=O)NC3COC3)c2)c1)Nc1c(F)cccc1Cl [Compound 25, 4-(4-(3-(2-chloro-6-fluorophenyl)ureido)-1H-pyrazol-1-yl)-N-(oxetan-3-yl)thiophene-2-carboxamide] | 91.5 | 97.4 | 91.7 | 84.3 | 82 | 92.8 | 97.9 | 92.5 | 89.3 | – | – | – | – | – | – | – | – | – |
| Cc1sc(C(=O)NC2COC2)cc1-n1cc(NC(=O)Nc2c(F)cccc2Cl)cn1 [Compound 27, 4-(4-(3-(2-chloro-6-fluorophenyl)ureido)-1H-pyrazol-1-yl)-5-methyl-N-(oxetan-3-yl)thiophene-2-carboxamide] | – | – | – | – | – | – | – | – | – | 105 | 104 | 116 | 107 | 78.5 | 94.4 | 102 | 92.6 | 114 |
